Assay results taken from US7358359B2, “Antibacterial agents” (University of Washington, priority 2003, dated 2008).
Read-outs that look alike come from different tables or passages of the source.

Columns and labels:
P. aeruginosa 27853 = test: MIC broth microdilution, standard panel: P. aeruginosa 27853; type: cell-based; conditions: Pseudomonas aeruginosa, standard panel of organisms
Protocol: (§1) Bacterial isolates were cultivated from −70° C. frozen stocks by two consecutive overnight passages at 35° C. in ambient air on 5% blood agar (Remel, Lenexa, Kans.). Clinical isolates tested were from a collection composed of isolates collected during clinical trials and recent clinical isolates obtained from various geographically diverse hospitals in the US. Quality control and primary panel strains were from the American Type Culture Collection (ATCC; Rockville, Md.), with the exception of P. aeruginosa PAO200, a strain with a deletion of the mexABoprM genes that was received from Dr. H. Schweizer. […] Strain Z61 (ATCC 35151) is also hypersusceptible to antibacterials. It is thought that the hypersusceptibility of this strain is the result of increased permeability of its outer membrane (Angus B L et al, Antimicrobial Agents and Chemotherapy 1982 21,299-309: Outer membrane permeability in Pseudomonas aeruginosa: Comparison of a wild-type with an antibacterial-supersusceptible mutant).
(§2) Minimum Inhibitory Concentrations (MICs) were determined by the broth microdilution method in accordance with the National Committee for Clinical Laboratory Standards (NCCLS) guidelines. In brief, organism suspensions were are adjusted to a 0.5 McFarland standard to yield a final inoculum between 3×10^5 and 7×10^5 colony-forming units (CFU)/mL. Drug dilutions and inocula were made in sterile, cation adjusted Mueller-Hinton Broth (Remel). An inoculum volume of 100 μl was added to wells containing 100 μl of broth with 2-fold serial dilutions of drug. All inoculated microdilution trays were incubated in ambient air at 35° C. for 18-24 hours. Following incubation, the lowest concentration of the drug that prevented visible growth was recorded as the MIC. Performance of the assay was monitored by the use of laboratory quality-control strains against tobramycin, that has a defined MIC spectrum, in accordance with NCCLS guidelines.

E. coli 25922 = test: MIC broth microdilution, standard panel: E. coli 25922; type: cell-based; conditions: Escherichia coli, standard panel of organisms
Protocol: as §1, §2

S. aureus 29213 = test: MIC broth microdilution, standard panel: S. aureus 29213; type: cell-based; conditions: Staphylococcus aureus, standard panel of organisms
Protocol: as §1, §2

[1] = test system: P. aeruginosa PAO200 mexAB; test: MIC broth microdilution, standard panel: P. aeruginosa PAO200 mexAB; type: cell-based; conditions: Pseudomonas aeruginosa, PAO200MEXAB, read-out: MIC P. aeruginosa PAO200 mexAB
Protocol: as §1, §2

[2] = test system: Pseudomonas aeruginosa cystic fibrosis isolate 3198; test: MIC vs cystic fibrosis isolate of P. aeruginosa 3198 (sensitive to most antibacterials); type: cell-based; conditions: strain 3198, Sensitive, LpxC inhibitors, MIC key class
Protocol: (§3) Bacterial isolates were cultivated from −70° C. frozen stocks by two consecutive overnight passages at 35° C. in ambient air on 5% blood agar (Remel, Lenexa, Kans.). Clinical isolates tested were from a collection composed of isolates collected during clinical trials and recent clinical isolates obtained from various geographically diverse hospitals in the US. Quality control and primary panel strains were from the American Type Culture Collection (ATCC; Rockville, Md.), with the exception of P. aeruginosa PAO200, a strain with a deletion of the mexABoprM genes that was received from Dr. H. Schweizer.
as §2, with “MIC.” for “MIC. Performance of the assay was monitored by the use of laboratory quality-control strains against tobramycin, that has a defined MIC spectrum, in accordance with NCCLS guidelines.”

[3] = test system: Pseudomonas aeruginosa cystic fibrosis isolate 3236; test: MIC vs cystic fibrosis isolate of P. aeruginosa 3236 (sensitive to most antibacterials); type: cell-based; conditions: strain 3236, Sensitive, LpxC inhibitors, MIC key class
Protocol: as §3
as §2, with “MIC.” for “MIC. Performance of the assay was monitored by the use of laboratory quality-control strains against tobramycin, that has a defined MIC spectrum, in accordance with NCCLS guidelines.”

[4] = test system: Pseudomonas aeruginosa cystic fibrosis isolate 2196; test: MIC vs cystic fibrosis isolate of P. aeruginosa 2196 (resistant to ciprofloxacin); type: cell-based; conditions: strain 2196, Cipro R, LpxC inhibitors, MIC key class
Protocol: as §3
as §2, with “MIC.” for “MIC. Performance of the assay was monitored by the use of laboratory quality-control strains against tobramycin, that has a defined MIC spectrum, in accordance with NCCLS guidelines.”

[5] = test system: Pseudomonas aeruginosa cystic fibrosis isolate 3224; test: MIC vs cystic fibrosis isolate of P. aeruginosa 3224; type: cell-based; conditions: strain 3224, Tobra R, LpxC inhibitors, MIC key class
Protocol: as §3
as §2, with “MIC.” for “MIC. Performance of the assay was monitored by the use of laboratory quality-control strains against tobramycin, that has a defined MIC spectrum, in accordance with NCCLS guidelines.”

[6] = test system: Pseudomonas aeruginosa cystic fibrosis isolate 3317; test: MIC vs cystic fibrosis isolate of P. aeruginosa 3317 (resistant to aztreonam); type: cell-based; conditions: strain 3317, Aztr. R, LpxC inhibitors, MIC key class
Protocol: as §3
as §2, with “MIC.” for “MIC. Performance of the assay was monitored by the use of laboratory quality-control strains against tobramycin, that has a defined MIC spectrum, in accordance with NCCLS guidelines.”

[7] = test system: Pseudomonas aeruginosa cystic fibrosis isolate 1145; test: microbe, parasite or virus in culture; type: cell-based; conditions: strain 1145, MDR, LpxC inhibitors, MIC key class, read-out: MIC
Protocol: as §3
as §2, with “MIC.” for “MIC. Performance of the assay was monitored by the use of laboratory quality-control strains against tobramycin, that has a defined MIC spectrum, in accordance with NCCLS guidelines.”

[8] = test system: Pseudomonas aeruginosa cystic fibrosis isolate 3206; test: microbe, parasite or virus in culture; type: cell-based; conditions: strain 3206, MDR, LpxC inhibitors, MIC key class, read-out: MIC
Protocol: as §3
as §2, with “MIC.” for “MIC. Performance of the assay was monitored by the use of laboratory quality-control strains against tobramycin, that has a defined MIC spectrum, in accordance with NCCLS guidelines.”

[9] = test system: non-CF clinical isolates of P. aeruginosa; test: MIC vs non-CF clinical isolates of P. aeruginosa; type: cell-based; conditions: Pseudomonas aeruginosa, MIC key class
Protocol: as §1, §2

[10] = test system: Acinetobacter calcoaceticus; test: MIC vs non-fermenting organisms: Acinetobacter calcoaceticus; type: cell-based; conditions: Acinet. calc., MIC key class
Protocol: as §3
as §2, with “MIC.” for “MIC. Performance of the assay was monitored by the use of laboratory quality-control strains against tobramycin, that has a defined MIC spectrum, in accordance with NCCLS guidelines.”

Alcaligenes xylosoxidans = test: MIC vs non-fermenting organisms: Alcaligenes xylosoxidans; type: cell-based; conditions: Achromobacter xylosoxidans; Alcal. xyl; MIC key class
Protocol: as §3
as §2, with “MIC.” for “MIC. Performance of the assay was monitored by the use of laboratory quality-control strains against tobramycin, that has a defined MIC spectrum, in accordance with NCCLS guidelines.”

Burkholderia cepacia = test: MIC vs non-fermenting organisms: Burkholderia cepacia; type: cell-based; conditions: Burkholderia cepacia, B. cepacia; MIC key class; read-out: MIC
Protocol: as §3
as §2, with “MIC.” for “MIC. Performance of the assay was monitored by the use of laboratory quality-control strains against tobramycin, that has a defined MIC spectrum, in accordance with NCCLS guidelines.”

[11] = test system: Stenotrophomonas maltophilia; test: MIC vs non-fermenting organisms: Stenotrophomonas maltophilia; type: cell-based; conditions: Stenotrophomonas maltophilia, S. malt.; MIC key class; read-out: MIC
Protocol: as §3
as §2, with “MIC.” for “MIC. Performance of the assay was monitored by the use of laboratory quality-control strains against tobramycin, that has a defined MIC spectrum, in accordance with NCCLS guidelines.”

Enterobacter aerogenes = test: MIC vs enteric organisms: Enterobacter aerogenes; type: cell-based; conditions: Klebsiella aerogenes; E. aer.; MIC key class
Protocol: as §3
as §2, with “MIC.” for “MIC. Performance of the assay was monitored by the use of laboratory quality-control strains against tobramycin, that has a defined MIC spectrum, in accordance with NCCLS guidelines.”

Enterobacter cloacae = test: MIC vs enteric organisms: Enterobacter cloacae; type: cell-based; conditions: E. clo., MIC key class
Protocol: as §3
as §2, with “MIC.” for “MIC. Performance of the assay was monitored by the use of laboratory quality-control strains against tobramycin, that has a defined MIC spectrum, in accordance with NCCLS guidelines.”

Escherichia coli = test: MIC vs enteric organisms: Escherichia coli clinical isolates; type: cell-based; conditions: Escherichia coli, MIC key class, read-out: MIC
Protocol: as §3
as §2, with “MIC.” for “MIC. Performance of the assay was monitored by the use of laboratory quality-control strains against tobramycin, that has a defined MIC spectrum, in accordance with NCCLS guidelines.”

Klebsiella pneumoniae = test: MIC vs enteric organisms: Klebsiella pneumoniae; type: cell-based; conditions: K. pneu., MIC key class
Protocol: as §3
as §2, with “MIC.” for “MIC. Performance of the assay was monitored by the use of laboratory quality-control strains against tobramycin, that has a defined MIC spectrum, in accordance with NCCLS guidelines.”

Klebsiella oxytoca = test: MIC vs enteric organisms: Klebsiella oxytoca; type: cell-based; conditions: K. oxy., MIC key class
Protocol: as §3
as §2, with “MIC.” for “MIC. Performance of the assay was monitored by the use of laboratory quality-control strains against tobramycin, that has a defined MIC spectrum, in accordance with NCCLS guidelines.”

Proteus mirabilis = test: MIC vs enteric organisms: Proteus mirabilis; type: cell-based; conditions: P. mir., MIC key class
Protocol: as §3
as §2, with “MIC.” for “MIC. Performance of the assay was monitored by the use of laboratory quality-control strains against tobramycin, that has a defined MIC spectrum, in accordance with NCCLS guidelines.”

Serratia marcescens = test: MIC vs enteric organisms: Serratia marcescens; type: cell-based; conditions: S. marc., MIC key class
Protocol: as §3
as §2, with “MIC.” for “MIC. Performance of the assay was monitored by the use of laboratory quality-control strains against tobramycin, that has a defined MIC spectrum, in accordance with NCCLS guidelines.”

[12] = test system: Pseudomonas aeruginosa cystic fibrosis isolate 3232; test: MIC vs cystic fibrosis isolate of P. aeruginosa 3232 (Ceftaz. R); type: cell-based; conditions: strain 3232, Ceftaz. R, LpxC inhibitors, MIC key class
P. aeruginosa LpxC = molecular target: T1, P. aeruginosa LpxC (Pseudomonas aeruginosa, UniProt P47205); test: P. aeruginosa LpxC Inhibition Assay; type: biochemical; conditions: 2 nM P. aeruginosa LpxC, 90 min, room temperature; read-out: IC50 (nM), Enzyme inhibitory activity
T1 sequence (P47205 1-303): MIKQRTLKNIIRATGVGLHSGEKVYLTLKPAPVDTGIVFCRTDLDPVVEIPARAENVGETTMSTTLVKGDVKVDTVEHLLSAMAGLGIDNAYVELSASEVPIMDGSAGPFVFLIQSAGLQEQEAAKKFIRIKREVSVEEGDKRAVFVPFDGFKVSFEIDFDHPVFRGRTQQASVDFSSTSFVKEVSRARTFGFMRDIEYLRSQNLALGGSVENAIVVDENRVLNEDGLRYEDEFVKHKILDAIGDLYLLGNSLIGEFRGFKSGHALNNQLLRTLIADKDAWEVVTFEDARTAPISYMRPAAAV
Protocol: The assay followed the general method of Hyland et al (Journal of Bacteriology 1997 179, 2029-2037: Cloning, expression and purification of UDP-3-O-acyl-GlcNAc deacetylase from Pseudomonas aeruginosa: a metalloamidase of the lipid A biosynthesis pathway) and the radiolabeling procedure is according to Kline et al. supra. Briefly, samples were incubated with 2 nM P. aeruginosa LpxC and 150 nM [3H-Ac]-UDP-3-OR-3-hydroxydecanoyl)-GlcNAc in a total volume of 50 uL for 90 min at room temperature. Reactions were carried out in 96-well polypropylene plates in 50 mM sodium phosphate buffer, pH 7.5, containing 1 mg/mL BSA. Reactions were stopped by the addition of 180 uL of a 3% suspension of activated charcoal powder in 100 mM sodium acetate, pH 7.5. Supernatants were clarified by centrifugation. A portion of the clarified supernatant, containing the enzymatically released [3H]-acetate, was transferred to opaque white 96-well plates containing scintillation fluid. The radioactivity was measured in a Perkin-Elmer/Wallac Trilux Microbeta counter.

NC[C@H](NC(=O)c1ccc(C#Cc2ccccc2)cc1)C(=O)NO [Example 366, N-[(1S)-1-(aminomethyl)-2-(hydroxyamino)-2-oxoethyl]-4-(phenylethynyl)benzamide]
< 6.25 µg/mL: MIC (P. aeruginosa 27853) | MIC (E. coli 25922) | MIC [1] | MIC [2] | MIC [3] | MIC [4] | MIC [5] | MIC [6] | MIC [7] | MIC [8] | MIC ([9]; P. aer 12307) | MIC ([9]; P. aer 27853) | MIC ([9]; PAO1, P. aer. PAO1) | MIC (Alcaligenes xylosoxidans) | MIC (Enterobacter cloacae) | MIC (Escherichia coli; E. coli 1619) | MIC (Escherichia coli; E. coli 2788) | MIC (Proteus mirabilis) | MIC (Serratia marcescens) | MIC [12]
6.25 to 50 µg/mL: MIC ([9]; P. aer psa-6b) | MIC (Burkholderia cepacia) | MIC [11] | MIC (Klebsiella pneumoniae) | MIC (Klebsiella oxytoca)
> 50 µg/mL: MIC (S. aureus 29213) | MIC [10] | MIC (Enterobacter aerogenes)

NC[C@H](NC(=O)c1ccc(C#Cc2ccc(NC(=O)CNc3ccccc3)cc2)cc1)C(=O)NO [Example 572, N-{(1S)-1-(aminomethyl)-2-(hydroxyamino)-2-oxoethyl]-4-[(4-{[(phenylamino)acetyl]amino}phenyl)ethynyl]benzamide]
< 100 nM: IC50 (P. aeruginosa LpxC)
< 6.25 µg/mL: MIC (P. aeruginosa 27853) | MIC (E. coli 25922) | MIC [1]
> 50 µg/mL: MIC (S. aureus 29213)

O=C(NO)[C@H]1[C@H](O)CCN1C(=O)c1ccc(OC(F)(F)F)cc1 [Example 3, (2R,3R)-3-hydroxy-1-{[4-(trifluoromethoxy)phenyl]carbonyl}pyrrolidine-2-carbohydroxamic acid]
64 to 65 °C: melting point

C[C@@H](O)[C@H](NC(=O)c1ccc(C#Cc2ccc(NC(=O)CNc3cnccn3)cc2)cc1)C(=O)NO [Example 860, N-{(1S,2R)-2-hydroxy-1-[(hydroxyamino)carbonyl]propyl}-4-[(4-{[(pyrazin-2-ylamino)acetyl]amino}phenyl)ethynyl]benzamide]
< 100 nM: IC50 (P. aeruginosa LpxC)
> 50 µg/mL: MIC (S. aureus 29213)
< 6.25 µg/mL: MIC (P. aeruginosa 27853) | MIC (E. coli 25922) | MIC [1]
